Laboratory results as given in US8815935B2, “Inhibitors of protein prenyltransferases” (The Regents of the University of California, priority 2008, dated 2014).
Like-named read-outs stand apart in the source and are kept apart here.

What was measured:
Jurkat cells = assay: Jurkat cell growth inhibition; format: cell-based, human
Protocol: In Table 4 in cell GI50 values for the growth inhibition of Jurkat cells are reported. The GI50 value is the concentration of a test compound needed to produce 50% growth inhibition in the cell type listed. In Table 4 the isolated yield of each synthetic step for the synthesis of corresponding compounds are also reported.
(§1) Panc-1 cells (Pancreatic cancer cell line) and Jurkat cells (T-cell leukemia) were treated with 12.5 μM of P5-H6 or 12.5 μM of mP5-H6a for 72 hours. The cell number was counted as described in Example 5.
(§2) Cell viability was determined by Cell Counting Kit-8 (CCK-8, Dojindo, Kumamoto, Japan) as described previously (31). Cell viability was calculated relative to the DMSO control. Cell cycle profile was analyzed by flow cytometry as described previously (32).

K562 cells = assay: K562 cell growth inhibition; format: cell-based, human
Protocol: K562 cells are a cell line of human erythroleukemia cells. The K562 cells were treated with P3-E5, P5-H6 or GGTI-298 (a known GGTI compound illustrated in FIG. 27) for 72 hours and then cell number was counted using cell counting kit-8 (Dojindo, Gaithersburg, Md.). Cell viability relative to the DMSO control and the known GGTI compound is plotted in FIG. 23.
as §2

GGTase-I = biological target: T1, GGTase-I (Rattus norvegicus, UniProt P53610+Q04631); assay: In vitro GGTase-I enzyme assay (IC50, kinetics); format: biochemical
T1 construct: purchased JENA BIOSCIENCE
Protocol: The GGTase-I assay was carried out using RhoA as a substrate protein, GGTase-I (JENA Bioscience) and [3H]geranylgeranyl pyrophosphate. Incubation was for 30 min at 37° C. GGTase-II (or RabGGTase) assay was carried out using YPTI as a substrate protein, GGTase-II (Calbiochem, San Diego, Calif.) plus REP1 (Calbiochem) and [3H]geranylgeranyl pyrophosphate. Incubation was for 30 min at 37° C. FIGS. 20D-20F show the three dimensional structure of GGTase I (D), FTsse (E) and GGTase II (F) which can be obtained from X-ray diffraction studies of protein crystals.
GGTase-I and FTase activities were determined by following the incorporation of radiolabeled isoprenoid [^3H]-geranylgeranyl or [^3H]-farnesyl into substrate proteins. FTase or GGTase-I (50 nM) were used to initiate reactions containing 0.4 μM of [^3H]-FPP or 0.5 μM of [^3H]-GGPP and 2 μM of MBP-tagged substrates (K-Ras4B for FTase; RhoA for GGTase-I) in 20 μl of buffer {50 mM Tris-HCl (pH 7.5), 10 mM MgCl2, […] and 5 mM DTT}. Inhibitors were added at the indicated concentrations. The final DMSO concentration was 2.5% for all samples.
Reactions were carried out for 10 min at 30° C. The reaction mixture was spotted onto a filter paper, treated with 10% trichloroacetic acid (TCA) followed by ethanol and acetone washing. The filter was counted using a scintillation counter. Kinetic assays in which the GGPP concentration was varied employed fixed concentrations of GGTase-I and RhoA, and reactions were carried out for 5 min. Similarly, fixed concentrations of GGTase-I and GGPP were used when the amount of RhoA was varied.

MCF7 = MCF7 cell growth inhibition; format: cell-based, human
Protocol: (§3) In FIG. 9-24 in vitro IC50 values for the GGTase I activity are reported. In Tables 7-15 in cell GI50 values for the growth inhibition of a variety of cancer cell lines (e.g., Jurkat, K562, MDA-MB-231, BT474, MCF7, MiaPaCa2, Aspc-1, Panc-1, Capan-2, CFpac-1, and MCF10a) are reported.
as §2

MCF10a = MCF10a cell growth inhibition; format: cell-based
Excerpt: as §3

Capan-2 = Capan-2 cell growth inhibition; format: cell-based, human; conditions: no unit printed there
Protocol: as §3, §2

BT474 = BT474 cell growth inhibition; format: cell-based, human; conditions: Tables 8-15; no unit printed there; listed as P61C4
Protocol: as §3, §2

MiaPaCa2 = MiaPaCa2 cell growth inhibition; format: cell-based, human; conditions: no unit printed there
Protocol: as §3, §2

Aspc-1 = Aspc-1 cell growth inhibition; format: cell-based, human; conditions: Tables 8-15; no unit printed there; listed as P61C4
Protocol: as §3, §2

Panc-1 = Panc-1 cell growth inhibition; format: cell-based, human; conditions: Tables 8-15; no unit printed there; listed as P61C4
Protocol: as §3, §1, §2

CFpac-1 = CFpac-1 cell growth inhibition; format: cell-based, human; conditions: Homo sapiens, CFPAC-1, Tables 8-15; no unit printed there
Protocol: as §3, §2

[1] = Homo sapiens, Jurkat, Tables 4, 6, 7, read-out: Jurkat cell GI50
[2] = Homo sapiens, Jurkat, Tables 8-15, no unit printed there, read-out: Jurkat GI50
[3] = Homo sapiens, K562, Tables 8-15, no unit printed there
[4] = Tables 3, 5, 7, read-out: In vitro (enzyme assay) IC50, GGTase I
[5] = Tables 8-15, no unit printed there (Table 7 head: μM unless otherwise specified), read-out: In vitro (GGTase I IC50)
[6] = Tables 4, 6, 7, read-out: Jurkat cell GI50
[7] = Homo sapiens, MCF7, Tables 8-15, no unit printed there
[8] = Homo sapiens, MCF-10A, Tables 8-15, no unit printed there
[9] = Tables 8-15, no unit printed there, listed as P61C4
[10] = Tables 8-15, no unit printed there, read-out: Jurkat GI50
[11] = Tables 8-15, no unit printed there

Row | GI50 (Jurkat cells; [1]) [µM] | GI50 (Jurkat cells; [2]) [µM] | GI50 (K562 cells; [3]) [µM] | IC50 (GGTase-I; [4]) [µM] | IC50 (GGTase-I; [5]) [µM] | Compound | also measured
1 | 0.32 | 0.32 | 1.7 | 6.9 | 6.9 | CC(C)C[C@H](NC(=O)C1=CC[C@@H](c2cccc(Br)c2)N(S(=O)(=O)c2ccc(F)cc2)[C@H]1c1cccc(Cl)c1)C(N)=O [P61-D03] | 
2 | 4.91 | 4.91 | 3.63 | > 50 | > 50 | CC(C)(C)[C@@H]1C=C(C(=O)N[C@@H](Cc2ccccc2)C(N)=O)[C@H](c2ccc(Cl)c(Cl)c2)N1S(=O)(=O)c1c(Cl)cccc1Cl [P61-D09] | 
3 |  | 2.76 | 8.26 |  | 4.4 | CC(C)(C)[C@@H]1C=C(C(=O)O)[C@H](c2ccc(Cl)cc2)N1S(=O)(=O)c1c(Cl)cccc1Cl | 
4 |  |  |  | > 20 | > 20 | NC(=O)[C@H](Cc1ccccc1)NC(=O)C1=CC[C@@H](c2cccc(Br)c2)N(S(=O)(=O)c2ccc(Cl)cc2)C1c1cccc(Cl)c1 (stereo partly drawn) [P61-D05] | GI50 (Jurkat cells; [6]): 3.57 µM; GI50 (Jurkat cells; Tables 8-15, no unit printed there, listed as P61D5, read-out: Jurkat GI50): 3.57 µM; GI50 (K562 cells; Tables 8-15, no unit printed there, listed as P61D5): 10.3 µM
5 |  | 5.36 | > 20 |  | 28.9 | CC(C)(C)[C@@H]1C=C(C(=O)O)[C@H](c2ccc(Cl)cc2)N1S(=O)(=O)C(C)(C)C | 
6 | 11 |  |  | 1.6 |  | Cc1ccccc1S(=O)(=O)N1[C@@H](c2ccc(Cl)cc2)C(C(N)=O)=C[C@H]1C(C)(C)C | GI50 (K562 cells; Homo sapiens, K562, Table 7): 4.8 µM
7 |  |  |  | > 50 | > 50 | CC(C)C[C@H](NC(=O)C1=CC[C@@H](c2cccc(Cl)c2)N(S(=O)(=O)c2ccc(Br)cc2)C1c1cccc(Br)c1)C(N)=O (stereo partly drawn) [P61-C09] | GI50 (Jurkat cells; [6]): 6.38 µM; GI50 (Jurkat cells; Tables 8-15, no unit printed there, listed as P61C9, read-out: Jurkat GI50): 6.38 µM; GI50 (K562 cells; Tables 8-15, no unit printed there, listed as P61C9): 12.9 µM
8 |  |  |  | 2.7 | 2.7 | CC(C)(C)[C@@H]1C=C(C(=O)N[C@@H](Cc2ccccc2)C(N)=O)[C@H](c2ccc(Cl)c(Cl)c2)N1S(=O)(=O)C(C)(C)C [P61-E02] | GI50 (Jurkat cells; [6]): 4.57 µM; GI50 (Jurkat cells; Tables 8-15, no unit printed there, listed as P61E2, read-out: Jurkat GI50): 4.57 µM; GI50 (K562 cells; Tables 8-15, no unit printed there, listed as P61E2): 4.22 µM
9 |  | 6.1 | 6.15 |  |  | Cc1ccccc1S(=O)(=O)N1C(c2cccc(Cl)c2)C(C(=O)N[C@@H](CC(C)C)C(N)=O)=CC[C@H]1c1ccc(Cl)cc1 (stereo partly drawn) | GI50 (MCF7; [7]): 10.9 µM; GI50 (MCF10a; [8]): > 20 µM
10 |  | 12 | 17 |  | 0.1 | Cc1ccccc1S(=O)(=O)N1[C@@H](c2ccc(Cl)cc2)C(COCC(=O)N[C@@H](Cc2ccccc2)C(=O)O)=C[C@H]1C(C)(C)C | 
11 | 4.02 |  |  | 1.3 |  | Cc1ccccc1S(=O)(=O)N1[C@@H](c2ccc(Cl)cc2)C(C(=O)NO)=C[C@H]1C(C)(C)C | GI50 (MCF7; Homo sapiens, MCF7, Table 7): 2.52 µM; GI50 (K562 cells; Homo sapiens, K562, Table 7): 10.3 µM; GI50 (MCF10a; Homo sapiens, MCF-10A, Table 7): 11.4 µM
12 |  | 7.5 | 5.8 |  | > 100 | Cc1ccccc1S(=O)(=O)N1C(c2cccc(Cl)c2)C(CO)=CC[C@H]1c1ccc(Cl)cc1 (stereo partly drawn) | 
13 |  | 1.3 | 5 |  | 0.7 | Cc1ccccc1S(=O)(=O)N1[C@@H](c2ccc(Cl)cc2)C(COCC(=O)N[C@@H](Cc2ccccc2)C(N)=O)=C[C@H]1C(C)(C)C | 
14 | 5.91 | 5.91 | 5.9 | > 50 | > 50 | CC(C)(C)[C@@H]1C=C(C(=O)N[C@@H](Cc2ccccc2)C(N)=O)[C@H](c2ccc(Cl)c(Cl)c2)N1S(=O)(=O)C(C)(C)C [P61-D11] | 
15 |  | 3.15 | 7.06 |  |  | CC(C)C[C@H](NC(=O)C1=CC[C@@H](c2cccc(Br)c2)N(S(=O)(=O)c2ccc(Cl)cc2)C1c1cccc(Cl)c1)C(N)=O (stereo partly drawn) | GI50 (MCF7; [7]): 3.43 µM; GI50 (MCF10a; [8]): 14.2 µM
16 | 4.86 | 4.86 | 7.69 | 1.3 | 1.3 | NC(=O)[C@H](Cc1ccccc1)NC(=O)C1=CC[C@@H](c2cccc(Br)c2)N(S(=O)(=O)c2ccc(Cl)cc2)C1c1cccc(Cl)c1 (stereo partly drawn) [P61-D04] | 
17 |  |  |  | > 50 | > 50 | Cc1ccccc1S(=O)(=O)N1[C@@H](c2ccc(Cl)cc2)C(C(=O)N[C@@H](Cc2ccccc2)C(N)=O)=C[C@H]1C(C)CC(C)(C)C (stereo partly drawn) [P61-C04] | GI50 (Capan-2; Tables 8-15, listed as P61C4): 7.5 µM; GI50 (BT474): 10.1 µM; GI50 (MCF7; [9]): 4.71 µM; GI50 (Jurkat cells; [6]): 6.4 µM; GI50 (Jurkat cells; Tables 8-15, no unit printed there, listed as P61C4, read-out: Jurkat GI50): 6.4 µM; GI50 (K562 cells; [9]): 5.95 µM; GI50 (MCF10a; [9]): 11.3 µM; GI50 (MiaPaCa2; Tables 8-15, listed as P61C4): 6.7 µM; GI50 (Aspc-1): 8.61 µM; GI50 (Panc-1): 8.6 µM
18 | 1.96 | 1.96 | 4.33 |  |  | NC(=O)[C@H](Cc1ccccc1)NC(=O)C1=CC[C@@H](c2cccc(Cl)c2)N(S(=O)(=O)c2ccc(Cl)cc2)C1c1cccc(Cl)c1 (stereo partly drawn) [P61-D02] | IC50 (GGTase-I; Tables 5, 14, read-out: In vitro (enzyme assay) IC50, GGTase I): 0.6 µM
19 | 1.76 | 1.76 | 10.2 | 32.9 | 32.9 | CC(C)C[C@H](NC(=O)C1=CC[C@@H](c2cccc(Br)c2)N(S(=O)(=O)c2ccc(F)cc2)C1c1cccc(Cl)c1)C(N)=O (stereo partly drawn) [P61-C11] | 
20 |  | 3.51 | 6.01 |  | 2.1 | COC(=O)[C@H](Cc1ccccc1)NC(=O)COCC1=C[C@@H](C(C)(C)C)N(S(=O)(=O)c2ccccc2C)[C@H]1c1ccc(Cl)cc1 | GI50 (MCF7; [7]): 6.78 µM; GI50 (MCF10a; [8]): 20 µM
21 | 5.8 |  |  | 2.2 |  | Cc1ccccc1S(=O)(=O)N1[C@@H](c2ccc(Cl)cc2)C(CO)=C[C@H]1C(C)(C)C | GI50 (K562 cells; Homo sapiens, K562, Table 7): 6 µM
22 |  | 13 | 20 |  | 1.4 | Cc1ccccc1S(=O)(=O)N1[C@@H](c2ccc(Cl)cc2)C(C(=O)N[C@@H](Cc2ccccc2)C(=O)O)=C[C@H]1C(C)(C)C [drawing 152] | 
23 |  |  |  |  |  | CC(C)C[C@H](NC(=O)C1=CC[C@@H](c2cccc(Cl)c2)N(S(=O)(=O)c2ccc(Br)cc2)C1c1cccc(Br)c1)C(N)=O (stereo partly drawn) [P61-C10] | GI50 (Jurkat cells; [6]): 2.22 µM; GI50 (Jurkat cells; [10]): 2.22 µM; GI50 (K562 cells; [11]): 4.37 µM
24 |  |  |  |  |  | Cc1ccccc1S(=O)(=O)N1C(c2cccc(Cl)c2)C(C(=O)N[C@@H](CC(C)C)C(N)=O)=CC[C@H]1c1ccc(Cl)cc1 (stereo partly drawn) [drawing 202] | GI50 (Capan-2; Homo sapiens, Capan-2, Tables 8-15): 14 µM; GI50 (CFpac-1): 13.7 µM; GI50 (MiaPaCa2; Homo sapiens, MIA PaCa-2, Tables 8-15): 12 µM
25 |  |  |  |  |  | Cc1ccccc1S(=O)(=O)N1C(c2cccc(Cl)c2)C(C(=O)N[C@@H](CC(C)C)C(N)=O)=CC[C@H]1c1ccc(Cl)cc1 (stereo partly drawn) [drawing 214] | GI50 (Jurkat cells; [10]): 6.1 µM; GI50 (MCF10a; [11]): > 20 µM
26 | 19 | 19 | 14 | > 50 | > 50 | COC(=O)[C@H](Cc1ccccc1)NC(=O)C1=C[C@@H](C(C)(C)C)N(S(=O)(=O)c2ccccc2C)[C@H]1c1ccc(Cl)cc1 [P61-A04] | 
